Measured values: patent publication US20230346912A1 (priority 2022, published 2023)

test system: spleen lymphocytes of B2 haplotype chickens infected with H9N2 AIV; assay type: cell-based, chicken

| Sequence | immunogenicity of individual peptide (IFN-γ ELISpot) |
| --- | --- |
| AVKGIGTMV [Polypeptide P10] | considered immunogenic |
| DVSFQGRGV [Polypeptide P11] | considered immunogenic |
| MSRDWLMLI [Polypeptide P373] | considered immunogenic |
| WIIRNWETV [Polypeptide P257] | considered immunogenic |
